{"source": "patent US9989519B1", "about": "“Method for determining in vitro bioequivalence of a sucralfate suspension sample to a sucralfate suspension reference listed drug (RLD)” (Clayton Pharmaceuticals, LLC, priority 2017, dated 2018)", "tested_on": "Caco-2 cell monolayers", "assay": "Indomethacin-induced damage (loss of TEER) in Caco-2 cell monolayers, assay development", "type": "cell-based, human", "experimental": "Considering the fact that the Caco-2 cell model mimics the human intestinal mucosa, and that the intraluminal pH of the small intestine ranges from approximately 6.0 to 7.4, evaluation of the damage induced by indomethacin (the chosen ulcerogenic agent, the use of which was previously reported) was performed at these two pH conditions. The choice of 0.75 mM indomethacin was based on earlier observations reported for a similar evaluation using Caco-2 cells for this initial assay development stage. For each pH condition, the damage was measured by comparing the TEER values of indomethacin-treated cell monolayers with those of control cell monolayers before and after the assay, and the % of TEER remaining (compared to the control treatment) was calculated. The results are illustrated below in FIG. 7. […] In contrast, for the assay with the pH condition of 6.0, approximately 50% of the TEER was lost by two hours and nearly 80% of the TEER was lost by the end of the assay duration of 5 hours. […] Therefore, pH 6.0 was selected as the optimal pH condition on the apical (modeling the luminal) side for this assay. It was also noted that the majority of the damage was caused between 2 and 3 hours of duration; any additional damage after three hours was marginal. For this reason, further evaluations were performed at a truncated duration of 2 to 3 hours. Considering the fact that significant damage to the cells was induced post two hours in the assessment above and the fact that a shorter assay duration would be desirable for the purposes of experimental logistics, different concentrations (1, 1.5 and 2 mM) of indomethacin were tested to understand the extent of damage caused to the cell monolayers as a function of indomethacin concentration using apical pH of 6.0 and a 3 hour duration. […] Therefore, a concentration of 2 mM was selected as the optimal concentration for this assay.", "data": [{"smiles": "COc1ccc2c(c1)c(CC(=O)O)c(C)n2C(=O)c1ccc(Cl)cc1", "note": "[indomethacin]", "values": [{"measurement": "damage to the cell monolayers as a function of indomethacin concentration", "setting": "2 mM (1, 1.5 and 2 mM tested), apical pH 6.0, 3 hour duration", "result": "Maximum damage"}, {"measurement": "TEER lost", "setting": "indomethacin 0.75 mM, apical pH 6.0, 5 hours", "result": "~80", "unit": "%"}, {"measurement": "TEER lost", "setting": "indomethacin 0.75 mM, apical pH 6.0, two hours", "result": "approximately 50%"}, {"measurement": "loss of TEER", "setting": "indomethacin 0.75 mM, pH 7.4, 5 hours", "result": "a significant loss of TEER was not observed"}]}]}
